Results as given in patent US9487551B2, “Small molecule compounds that control mammal-pathogenic nematodes” (California Institute of Technology, priority 2011, dated 2016).
“Also recorded” adds a separate entry of the source. Marks after values point to notes of the source that are not given here.

Experiments:
[1] = tested on: C. elegans; assay: Ascaroside function (Table 12); type: in vivo, Caenorhabditis elegans; design: key to Attract Females/Herm. / Promote Dauer Formation / Attract Males: A very strong result of affecting nematode behavior is designated in the table as “strong.”; settings: listed = has this function
Method: (§1) Various ascarosides and ascaroside blends were administered to various nematodes described below (Table 12). […] A very strong result of affecting nematode behavior is designated in the table as “strong.”

[2] = tested on: S. glaseri; assay: Ascaroside function (Table 12); type: in vivo; settings: listed = has this function
Method: as §1

[3] = tested on: Panagrellus redivivus; assay: Ascaroside function (Table 12); type: in vivo; settings: listed = has this function
Method: as §1

[4] = tested on: Several of the tested nematode species; assay: Retention assay; type: in vivo; settings: 1 nM, 1 μM and 1 mM tested
Method: OP50 E. coli was grown on a standard 5 cm agar plate (made with standard Nematode Growth Medium). The bacterial lawn was 16 mm in diameter and was grown overnight at 20° C. before being used in trials. Two 4 mm spots (0.6 μL) were placed on opposite sides of the bacterial lawn (using a transparent template to guide spot placement), and several minutes elapsed for the liquid to settle in before placing nematodes down on the assay. Recording began immediately upon worm placement. 0.6 μL of the control was placed on one side of the lawn, and 0.6 μL of the experimental cue was placed on the other side of the lawn, changing the location of the cue throughout trials between left/right and top/bottom to avoid bias.
Nematodes were isolated by gender at the L4 stage the day before being used in trials as developed adults. Worms were evenly divided and placed at two points equidistant from the foci of the scoring region. Trials were recorded for 20 minutes, and frames were collected for analysis at 1 frame per second. Results were averaged from at least three different trials. For every nematode species in this study, a different total number of worms (using water in both scoring regions) was tested to determine the minimum number of worms necessary for consistent unbiased results over a 20 minute trial. The total number of worms used in the multiple species assays depended on that species' optimal parameters. 10 worms were used for P. redivivus males and females, 20 worms were used for C. elegans males and O. dolichuridae males, and 14 worms were used for S. glaseri males. The Automated Software was used to compare worm occupancy in each scoring region over time, and the Chemotaxis Index (Bargmann et al., Cell 74:515-27 (1993), which is hereby incorporated by reference in its entirety) was adapted to score preference or avoidance to each ascaroside.
A video camera attached to the microscope produced a digital video stream, which was then analyzed. The ratio of the time the average worm spent in each region of interest was calculated for every trial. For ease of implementation, all worms in a single experiment were assumed to be roughly the same size. Thus worm pixels were counted instead of whole worms, allowing fractions of a worm in the region of interest to be taken into account. It also eliminated the need for a shape-based worm identification algorithm, and allowed each frame to be analyzed independently. A band-pass filter was applied to each frame to eliminate the effect of uneven lighting and also accentuate the worms against the background. The worm was then identified after thresholding the filtered image. Throughout each experiment, the locations and sizes of the regions of interest were known. Through the filtering described above, it is known which pixels are occupied by worms and which ones are not. Thus, the ratio of worm-pixels to all pixels inside the region of interest can be calculated to produce the worm-occupancy ratio. This calculation was done for every frame, giving a plot output of worm-occupancy ratio vs. time for each region.

[5] = tested on: C. elegans; settings: cited from earlier work
[6] = tested on: C. elegans; settings: in vivo; cited from earlier work
[7] = tested on: C. elegans males; assay: Attraction assay (long-range, point source); type: in vivo; settings: 10 cm plate
Method: 10 cm standard chemotaxis plates were prepared (Bargmann et al., Cell 74:515-27 (1993), which is hereby incorporated by reference in its entirety) and stored at 4° C. until the day before use. Standard 1 cm-diameter copper pipes were sectioned into 1 cm-tall segments to use for the holding chambers. The females/hermaphrodites were isolated overnight, washed 3 times in M9 buffer, and then allowed to wander on a plate pre-conditioned with 50 uL of 1000× treptomycin for 2 hours to kill any bacteria that might produce a false positive attractant. The nematodes were then washed 3 times, and the supernatant from the last wash was placed in a copper chamber, as the control, 1 cm from the border of the 10 cm plate. The nematodes were suspended in M9 within the copper chamber, 1 cm from the border opposite the control chamber. After 6 hours, they were subsequently removed and replaced with 3 μL of 1M sodium azide. 100 C. elegans adult males were isolated overnight, washed several times in ddH2O, and placed at the center of the agar plate. After several hours, males paralyzed within 2 cm of each region were scored. The Chemotaxis Index (Bargmann et al., Cell 74:515-27 (1993), which is hereby incorporated by reference in its entirety) was then used to score male chemotaxis to either point source.

[8] = tested on: S. feltiae; assay: Ascaroside function (Table 12); type: in vivo, Steinernema feltiae; settings: listed = has this function
Method: as §1

[9] = tested on: Heterorhabditis bacteriophora, H. zealandica, H. floridensis; assay: Ascaroside function (Table 12); type: in vivo, Heterorhabditis spp.; settings: for predicted function in Heterorhabditis: alone, in concert, and/or in concert with ascr#9 or other ascarosides; for Dispersal (of dauer larvae, infectious juveniles) / Repel Females/Herm.: entries with asterisk (predicted)
Method: (§2) Ascarosides ascr#10, ascr#16, ascr#18, ascr#20, and ascr#22 were detected in certain species of Meloidogyne plant parasitic nematodes (FIG. 83) and identified using high-resolution mass spectrometry (FIGS. 84-88).
as §1

[10] = tested on: Meloidogyne javanica, M. floridensis, M. incognita, M. hapla; assay: Ascaroside function (Table 12); type: in vivo, Meloidogyne spp.; settings: for predicted function in Meloidogyne species: alone, in concert, and/or in concert with ascr#9 or other ascarosides; for Dispersal (of dauer larvae, infectious juveniles) / Repel Females/Herm.: entries with asterisk (predicted)
Method: as §2, §1

[11] = tested on: C. elegans; assay: Spot attraction assay; type: in vivo
Method: The spot attraction assays were conducted according to a previously reported method (Pungaliya et al., PNAS 106:7708-13 (2009); Srinivasan et al., Nature 454:1115-18 (2008), which are hereby incorporated by reference in their entirety). For both C. elegans hermaphrodites and males, 50-60 worms were harvested daily at the fourth larval stage (L4) and stored segregatedly by sex at 20° C. overnight, to be used as young adults the following day. For the competition experiments, two conditions were used: 120 nM ascr#3 and 10 nM icas#3 (Condition 1), or 12 μM ascr#3 and 1 μM icas#3 (Condition 2) in water containing 10% ethanol. Aliquots were stored at −20° C. in 20 μL tubes. 10% ethanol in water was used as control.
Attraction assays with hbas#3 were conducted as previously reported (Srinivasan et al., Nature 454:1115-18 (2008); Pungaliya et al., Proc. Natl. Acad. Sci. U.S.A. 106:7708-13 (2009), which are hereby incorporated by reference in their entirety). For the attraction assays, 50-60 hermaphrodite worms were harvested daily at the early fourth larval stage (L4) and stored at 20° C. overnight to be used as young adults the following day. Hbas#3 was dissolved in water containing 10% ethanol. Aliquots were stored at −20° C. in 20 μL tubes. 10% ethanol in water was used as control.

[12] = tested on: C. elegans; assay: Quadrant chemotaxis assay; type: in vivo; settings: FIGS. 48A-B; wild-type hermaphrodites
Method: Chemotaxis to both non-indole and indole ascarosides was assessed on 10 cm four-quadrant petri plates (Wicks et al., Dev. Biol. 221:295-307 (2000), which is hereby incorporated by reference in its entirety). Each quadrant was separated from adjacent ones by plastic spacers (FIG. 1B). Pairs of opposite quadrants were filled with nematode growth medium (NGM) agar containing either indole ascarosides or non-indole ascarosides at different concentrations. Animals were washed gently in a S-basal buffer, placed in the center of a four-quadrant plate with ascarosides in alternating quadrants, and scored after 15 minutes and 30 minutes. A chemotaxis index was calculated as: (the number of animals on ascaroside quadrants minus the number of animals on buffer quadrants)/(total number of animals).
Chemotaxis to hbas#3 was assessed on 10 cm four-quadrant petri plates (Wicks et al., Dev. Biol. 221:295-307 (2000), which is hereby incorporated by reference in its entirety). Each quadrant was separated from adjacent ones by plastic spacers. Pairs of opposite quadrants were filled with nematode growth medium (NGM) agar containing different concentrations of hbas#3. Animals were washed gently in an S-basal buffer and placed in the center of a four-quadrant plate with ascarosides in alternating quadrants, and scored after 15 minutes and 30 minutes. A chemotaxis index was calculated as: (the number of animals on ascaroside quadrants minus the number of animals on buffer quadrants)/(total number of animals).

Question: Which “Promote Dauer Formation” value [1] does the source give for CC(=O)CC[C@@H](C)O[C@@H]1O[C@@H](C)[C@H](O)C[C@H]1O[C@@H]1O[C@H](CO)[C@@H](O)[C@H](O)[C@H]1O [ascr#4] here?
Answer: ascr#4

Question: Which “Attract Males” value [2] does the source give for CC1O[C@@H](O[C@H](C)CCCC/C=C/C(=O)O)[C@@H](O)C[C@H]1O (some centres unmarked) [ascr#3] here?
Answer: ascr#3

Question: What about the “Attract Males” value [3] of the same molecule?
Answer: ascr#3

Question: And the “preference for ascaroside-conditioned areas” value [4]?
Answer: preferred areas conditioned

Question: And the “most active amount for attraction” value ([5]; from 1 μM concentration)?
Answer: ~1 pmol

Question: And the “response of social and solitary hermaphrodites” value ([5]; high dauer-inducing concentrations)?
Answer: strongly deter both social and solitary hermaphrodites

Question: And the “response of males and hermaphrodites” value ([5]; in vivo)?
Answer: strongly attracts males but repels hermaphrodites

Question: What about the dauer-inducing activity [6] of the same molecule?
Answer: individually promote dauer entry

Question: And the “Attract Males” value [1]?
Answer: ascr#3

Question: And the “Promote Dauer Formation” value [1]?
Answer: ascr#3 ([strong])

Question: And the “Repel Females/Herm.” value [1]?
Answer: ascr#3

Question: And the “amount as low as which elicited C. elegans male attraction” value [7]?
Answer: 5 femtomol

Question: What about the “male attraction from a distance” value [7] of the same molecule?
Answer: chemotax towards

Question: And the “Dispersal (of dauer larvae, infectious juveniles)” value (shortened to “Dispersal”) [8]?
Answer: ascr#3

Question: Which “predicted function in Heterorhabditis” value [9] does the source give for C[C@H](CCCCCCCCCCC(=O)O)O[C@@H]1O[C@@H](C)[C@H](O)C[C@H]1O [ascr#22] here?
Answer: act as dispersants and repellants

Question: What about the “Dispersal” value [9] of the same molecule?
Answer: ascr#22*

Question: What about the “Repel Females/Herm.” value [9] of the same molecule?
Answer: ascr#22*

Question: What about the “predicted function in Meloidogyne species” value [10] of the same molecule?
Answer: act as dispersants and repellants

Question: And the “Dispersal” value [10]?
Answer: ascr#22*

Question: And the “Repel Females/Herm.” value [10]?
Answer: ascr#22*

Question: For C[C@H](CC/C=C/C(=O)O)O[C@@H]1O[C@@H](C)[C@H](O)C[C@H]1O [ascr#7], which “Attract Males” value [2] is on record?
Answer: ascr#7

Question: What about the “Attract Males” value [3] of the same molecule?
Answer: ascr#7

Question: And the “preference for ascaroside-conditioned areas” value [4]?
Answer: preferred areas conditioned

Question: What about the “Attract Males” value [1] of the same molecule?
Answer: ascr#7

Question: With CC1OC(O[C@H](C)CCCCCCCCCC(=O)O)C(O)CC1O (some centres unmarked) [ascr#20] as the molecule, how does the “predicted function in Meloidogyne species” value [10] read?
Answer: act as dispersants and repellants

Question: What about the “Dispersal” value [10] of the same molecule?
Answer: ascr#20*

Question: And the “Repel Females/Herm.” value [10]?
Answer: ascr#20*

Question: For C[C@H](CCCCC(=O)O)O[C@@H]1O[C@@H](C)[C@H](OC(=O)c2c[nH]c3ccccc23)C[C@H]1O [icas#1], which “Attract Females/Herm.” value [1] is on record?
Answer: icas#1 ([strong])

Question: What about the “Attract Males” value [1] of the same molecule?
Answer: icas#1 ([strong])

Question: And the “attraction in spot attraction assay” value ([11]; 1 pmol (high concentrations), N2 hermaphrodites and him-5 males)?
Answer: attractive to both C. elegans sexes; also recorded: attracted both males and hermaphrodites

Question: Which “predicted function in Meloidogyne species” value [10] does the source give for CC1OC(O[C@H](C)CCCCCCCC(=O)O)C(O)CC1O (some centres unmarked) [ascr#16] here?
Answer: act as dispersants and repellants

Question: What about the “Dispersal” value [10] of the same molecule?
Answer: ascr#16*

Question: What about the “Repel Females/Herm.” value [10] of the same molecule?
Answer: ascr#16*

Question: For C[C@H](CCCC/C=C/C(=O)O)O[C@@H]1O[C@@H](C)[C@H](OC(=O)c2ccc(O)cc2)C[C@H]1O [hbas#3, (8R)-(3′R-Hydroxy-5′R-(4-hydroxybenzoyloxy)-6′S-methyl-(2H)-tetrahydropyran-2′-yloxy)non-(2E)-enoic acid], which “Attract Males” value [1] is on record?
Answer: ([strong])

Question: What about the “attraction of wild-type (N2) hermaphrodites” value ([11]; dose dependent) of the same molecule?
Answer: attracted

Question: What about the “concentration as low as which strongly attracted C. elegans” value [12] of the same molecule?
Answer: 10 femtomolar

Question: For CC1O[C@@H](OCCCCCCCCC(=O)O)C(O)C[C@H]1O (stereo partly drawn) [oscr#10, 9-(3′R,5′R-Dihydroxy-6′S-methyl-(2H)-tetrahydropyran-2′-yloxy)nonanoic acid], which “Repel Males” value [3] is on record?
Answer: oscr#10

Question: What does the source list for CC1OC(O[C@H](C)CCCCCCCCC(=O)O)C(O)CC1O (some centres unmarked) [ascr#18]?
Answer: predicted function in Heterorhabditis [9]: act as dispersants and repellants; Dispersal (of dauer larvae, infectious juveniles) [9]: ascr#18*; Repel Females/Herm. [9]: ascr#18*; predicted function in Meloidogyne species [10]: act as dispersants and repellants; Dispersal (of dauer larvae, infectious juveniles) [10]: ascr#18*; Repel Females/Herm. [10]: ascr#18*

Question: For C[C@@H]1O[C@@H](OCCCCC(=O)O)[C@H](O)C[C@H]1O [oscr#9, 5-(3′R,5′R-Dihydroxy-6′S-methyl-(2H)-tetrahydropyran-2′-yloxy)pentanoic acid], which “Attract Males” value [3] is on record?
Answer: oscr#9
